Tests used:
Type in all cases: in vivo, mouse
Smn protein [1] = assay: Smn protein levels in tissues of Δ7 SMA mice of the survival study; conditions: neonatal Δ7 SMA mice; brain and muscle; treated until P47-55 (Compound 35), until P68 (Compound 626)
Description: (§1) Protocol. The tissue samples in Safe-Lock tubes are weighed and the volume of RIPA buffer containing the protease inhibitor cocktail is added based on the weight to volume ratios for each type of tissue: Brain (50 mg/mL), Muscle (50 mg/mL) and Spinal Cord (25 mg/mL).
(§2) Tissues are homogenized using the TissueLyzer by bead milling. 5 mm stainless steel beads are added to the sample and shaken vigorously for 5 minutes at 30 Hz in the TissueLyzer. The samples are then centrifuged for 20 minutes at 14,000×g in a microcentrifuge and the homogenates transferred to the PCR plate. […] Fluorescence for each well of the plate at 665 nm and 620 nm is measured on an EnVision multilabel plate reader (Perkin-Elmer). The total protein in the tissue homogenate is measured using the BCA assay according to the manufacturer's protocol.
(§3) The normalized fluorescence signal is calculated for each sample, Blank and vehicle control well by dividing the signal at 665 nm by the signal at 620 nm. Normalizing the signal accounts for possible fluorescence quenching due to the matrix effect of the tissue homogenate. […] The ΔF value for each tissue sample well is divided by the total protein quantity (determined using the BCA assay) for that tissue sample. […]
Protocol. […] The number of surviving mice in each group is recorded every day and plotted as a percent of total number of mice. […]

Smn protein [2] = assay: Smn protein in tissues of neonatal Δ7 SMA mice; conditions: neonatal SMA Δ7 homozygous knockout mice; brain, spinal cord, muscle; IP QD from PND 3 to day 9
Description: as §1
as §2, with “plate. The homogenates are diluted in RIPA buffer to approximately 1 mg/mL for HTRF and approximately 0.5 mg/mL for total protein measurement using the BCA protein assay.” for “plate.”
as §3

[3] = tested on: SMA Δ7 homozygous knockout mice; assay: Survival of neonatal Δ7 SMA mice; conditions: IP QD from PND 3, then orally BID until study end, compared to vehicle
Description: The change in the number of surviving mice over time is used to determine whether treatment with a test compound improves survival.
Protocol. SMA Δ7 homozygous knockout mice are dosed intraperitoneally (IP) with test compound or vehicle (100% DMSO) once per day (QD) from postnatal day (PND) 3 until the dose regimen is switched to an oral dose twice per day (BID) in 0.5% hydroxypropylmethyl cellulose (HPMC) with 0.1% Tween-80 at a dose 3.16-fold higher than the dose used for IP. The number of surviving mice in each group is recorded every day and plotted as a percent of total number of mice. Tissues of SMA Δ7 and age-matched heterozygous mice are collected for the measurement of Smn protein levels and processed as detailed in Example 10. The total protein normalized Smn protein levels measured in the tissues are plotted as a percent of those in the age-matched heterozygous mice tissues, with the heterozygous levels represented as 100 percent. The level of Smn protein in the test compound treated mice tissue relative to that in heterozygous mice tissue is indicated as a percent value above each bar in the graph.

Row | SMILES | Smn protein expression in tissues relative to vehicle treated and age-matched heterozygous mice (Smn protein [1]) | total protein normalized Smn level (Smn protein [2]) | survival [3]
1 | CCN1CCN(c2ccc3cc(-c4cn5cc(C)nc(C)c5n4)c(=O)oc3c2)C[C@@H]1C [Cpd 626, 3-(6,8-dimethylimidazo[1,2-a]pyrazin-2-yl)-7-[(3S)-4-ethyl-3-methylpiperazin-1-yl]-2H-chromen-2-one] | increased Smn protein expression | dose dependently increased | improved compared to vehicle treated mice
2 | CC(C)NCCc1ccc2cc(-c3nc4c(Cl)cccc4s3)c(=O)oc2c1 [Cpd 35, 3-(4-chloro-1,3-benzothiazol-2-yl)-7-[2-(propan-2-ylamino)ethyl]-2H-chromen-2-one] | increased Smn protein expression | dose dependently increased | improved compared to vehicle treated mice

Source: USRE47689E1, “Compounds for treating spinal muscular atrophy” (PTC Therapeutics, Inc., priority 2011, dated 2019)
